Reference: patent publication US20090068290A1, “BIFEPRUNOX DOSES FOR TREATING SCHIZOPHRENIA” (priority 2006, published 2009)

Columns and labels:
[1] = Pooled metabolic analysis, 6-week studies: lipid profile
Text: (§1) OBJECTIVE: To examine the metabolic effects of bifeprunox in patients with acute and stable schizophrenia.
(§2) METHODS: Metabolic data was compiled from one 6-month and four 6-week studies (i.e., a treatment period) of bifeprunox in patients with stable and acute schizophrenia, respectively. In the 6-month study, patients received bifeprunox (n=331) or placebo (PBO) (n=166). […] Metabolic evaluations included body weight, body mass index (BMI), plasma glucose and lipid profiles. Fasting glucose and lipid values were assessed in one 6-week study and in the 6-month study. Triglyceride:HDL ratio (TG:HDL) was calculated as a marker of insulin resistance. No statistical analyses were performed; only descriptive statistics are presented.

[2] = Pooled metabolic analysis, 6-week studies: glucose
Text: as §1, §2

[3] = test system: patients with chronic schizophrenia; assay: CGI-I score and CGI-I responders (score 2 or less), Clinical Study Four; assay type: in vivo, human; conditions: FAS; for proportion of patients with a CGI-I score ≦2 / CGI-I, Adjusted mean values (LS mean): LOCF; for CGI-I, Adjusted mean values (LS mean): adjusted mean values instead of change from baseline
Experimental: (§3) METHODOLOGY: This study was a multinational, multicenter, randomized, double-blind, parallel-group, placebo-controlled, fixed-dose study. The study consisted of a 3- to 6-day antipsychotic-free run-in period, after which patients were randomised to 6 months of double-blind treatment with fixed doses of bifeprunox (20 mg/day (BX20) or 30 mg/day (BX30)) or placebo (PBO). Patients allocated to the BX groups were up-titrated from 0.25 mg/day over 7 days (BX20) or 8 days (BX30), and then continued on these doses for the remainder of the study. […] At predetermined time points, blood samples were obtained for drug concentration analysis of BX and its major metabolites (3′- and 4′-sulfate conjugates of BX), and pharmaco-economic assessments were performed.
CLINICAL STUDY FOUR: The proportion of patients with a CGI-I score ≦2 at each visit (CGI-I responders; FAS, LOCF) is show below in FIG. 5.

[4] = Pooled metabolic analysis, 6-month study: lipid profile
Text: as §1, §2

[5] = Lipid profile and fasting glucose, Clinical Study Four; assay type: in vivo, human
Experimental: as §3

[6] = test system: patients with chronic schizophrenia; assay: PANSS general psychopathology subscale score, Clinical Study Four; assay type: in vivo, human; conditions: FAS, ANCOVA; for PANSS general psychopathology, Adjusted Mean Change from Baseline (LS mean): LOCF
Experimental: as §3

serum proteins = assay: Binding to serum proteins
[7] = Clinical laboratory assessments (lipid shifts, thyroid function), Clinical Study Two; assay type: in vivo, human
Experimental: Pharmacokinetic (PK) data of bifeprunox in schizophrenic subjects were also assessed and are presented in a separate report (combined with data from study S1543003).
Subjects who completed this study had the option to continue in the long-term. […] Risperidone-treated subjects were titrated from 2 mg to 6 mg daily over a three-day period and were subsequently maintained at 6 mg/day for the remainder of the treatment period. […] Blood samples were also obtained at Screening/Baseline, Week 3, and Week 6 for clinical laboratory assessments.

[8] = fasting, endpoint, 6-week studies, BX total, OLZ 15 mg
[9] = non-fasting, endpoint, 6-week studies, BX total, RISP 6 mg, OLZ 15 mg, HAL 10 mg
[10] = fasting, endpoint, 6-month study, BX total
[11] = BX20 (bifeprunox 20 mg), Fasting
[12] = BX20 (bifeprunox 20 mg), Non-fasting
[13] = BX30 (bifeprunox 30 mg), Fasting
[14] = BX30 (bifeprunox 30 mg), Non-fasting

O=c1[nH]c2cccc(N3CCN(Cc4cccc(-c5ccccc5)c4)CC3)c2o1 [Bifeprunox, 7-[4-([1,1′-biphenyl]-3-ylmethyl)-1-piperazinyl]-2(3H)-benzoxazolone]
change in total cholesterol (TC) ([1]; 6-week studies): -0.40 mmol/L
decrease in total cholesterol (TC) ([1]; 6-week studies): 8%
non-fasting total cholesterol and triglyceride at endpoint (in words) ([1]; 6-week studies): greatest decreases
change in TG ([1]; 6 week studies): -0.44 mmol/L
decrease in TG ([1]; 6 week studies): 24%
Fasting HDL, Mean change (SD) [1, 8]: −0.5 (10.7) mg/dL
Fasting HDL, Percentage mean change [1, 8]: −1.0%
Total cholesterol, Mean change (SD) [1, 8]: −15.5 (32.9) mg/dL
Total cholesterol, Percentage mean change [1, 8]: −7.9%
Triglyceride:HDL ratio, Mean change (SD) [1, 8]: −0.4 (0.9)
Triglyceride:HDL ratio, Percentage mean change [1, 8]: −23.8%
Triglycerides, Mean change (SD) [1, 8]: −38.9 (73.5) mg/dL
Triglycerides, Percentage mean change [1, 8]: −24.2%
Total cholesterol, Mean change (SD) [1, 9]: −12.9 (0.8) mg/dL
Triglycerides, Mean change (SD) [1, 9]: −38.7 (1.3) mg/dL
change in mean fasting glucose at endpoint [2]: -1.44 mg/dL
decrease in mean fasting glucose at endpoint [2]: 1.6%
proportion of patients with a CGI-I score ≦2 ([3]; BX20, Month 6): 22%
proportion of patients with a CGI-I score ≦2 ([3]; BX20, Week 6): 17%
proportion of patients with a CGI-I score ≦2 ([3]; BX30, Month 6): 20%
proportion of patients with a CGI-I score ≦2 ([3]; BX30, Week 6): 19%
CGI-I, Adjusted mean values (LS mean) ([3]; Month 6, ANCOVA): 4.0
CGI-I, Adjusted mean values (LS mean) ([3]; Week 6, ANCOVA, listed as BX20): 3.8
CGI-I, Adjusted mean values (LS mean) ([3]; Week 6, ANCOVA, listed as BX30): 3.7
mean CGI-I scores versus PBO, per-visit LOCF analysis ([3]; both BX doses, ANCOVA): statistically significantly superior to PBO from Week 6 onwards
change in total cholesterol (TC) ([4]; 6-month study): -0.31 mmol/L
decrease in TG:HDL ([4]; 6-month study): 23%
decrease in total cholesterol (TC) ([4]; 6-month study): 6%
total cholesterol and triglycerides (in words) ([4]; 6-month study): reduced to a greater extent with bifeprunox than with placebo
Fasting HDL, Mean change (SD) [4, 10]: 2.9 (9.3) mg/dL
Fasting HDL, Percentage mean change [4, 10]: 6.2%
Total cholesterol, Mean change (SD) [4, 10]: −11.6 (29.7) mg/dL
Total cholesterol, Percentage mean change [4, 10]: −6.4%
Triglyceride:HDL ratio, Mean change (SD) [4, 10]: −0.4 (1.0)
Triglyceride:HDL ratio, Percentage mean change [4, 10]: −23.0%
Triglycerides, Mean change (SD) [4, 10]: −28.0 (76.0) mg/dL
Triglycerides, Percentage mean change [4, 10]: −19.4%
Fasting LDL, Mean change (SD) ([4]; in vivo): −9.7 (27.6) mg/dL
Fasting LDL, Percentage mean change ([4]; in vivo): −8.6%
change in TG values ([4]; over 6-months): -0.32 mmol/L
decrease in TG values ([4]; over 6-months): 19%
adjusted mean fasting glucose increase from baseline to Month 6 ([5]; BX20): 0.13 mmol/L
Cholesterol, total, Mean change from baseline to Month 6 [5, 11]: -0.18 mmol/L
HDL, direct, Mean change from baseline to Month 6 [5, 11]: 0.07 mmol/L
LDL, calculated, Mean change from baseline to Month 6 [5, 11]: -0.1 mmol/L
Triglycerides, Mean change from baseline to Month 6 [5, 11]: -0.08 mmol/L
VLDL, calculated, Mean change from baseline to Month 6 [5, 11]: -0.03 mmol/L
Cholesterol, total, Mean change from baseline to Month 6 [5, 12]: -0.42 mmol/L
HDL, direct, Mean change from baseline to Month 6 [5, 12]: 0.12 mmol/L
LDL, calculated, Mean change from baseline to Month 6 [5, 12]: -0.35 mmol/L
Triglycerides, Mean change from baseline to Month 6 [5, 12]: -0.41 mmol/L
VLDL, calculated, Mean change from baseline to Month 6 [5, 12]: -0.19 mmol/L
adjusted mean HDL cholesterol change from baseline to Month 6 ([5]; BX20, fasting): 0.07 mmol/L
adjusted mean triglycerides change from baseline to Month 6 ([5]; BX20, fasting): -0.16 mmol/L
adjusted mean HDL cholesterol change from baseline to Month 6 ([5]; BX20, non-fasting): 0.08 mmol/L
adjusted mean triglycerides change from baseline to Month 6 ([5]; BX20, non-fasting): -0.21 mmol/L
adjusted mean fasting glucose increase from baseline to Month 6 ([5]; BX30): 0.09 mmol/L
Cholesterol, total, Mean change from baseline to Month 6 [5, 13]: -0.22 mmol/L
HDL, direct, Mean change from baseline to Month 6 [5, 13]: 0.05 mmol/L
LDL, calculated, Mean change from baseline to Month 6 [5, 13]: -0.12 mmol/L
Triglycerides, Mean change from baseline to Month 6 [5, 13]: -0.40 mmol/L
VLDL, calculated, Mean change from baseline to Month 6 [5, 13]: -0.16 mmol/L
Cholesterol, total, Mean change from baseline to Month 6 [5, 14]: -0.10 mmol/L
HDL, direct, Mean change from baseline to Month 6 [5, 14]: 0.08 mmol/L
LDL, calculated, Mean change from baseline to Month 6 [5, 14]: -0.12 mmol/L
Triglycerides, Mean change from baseline to Month 6 [5, 14]: 0.06 mmol/L
VLDL, calculated, Mean change from baseline to Month 6 [5, 14]: 0.03 mmol/L
adjusted mean HDL cholesterol change from baseline to Month 6 ([5]; BX30, fasting): 0.07 mmol/L
adjusted mean triglycerides change from baseline to Month 6 ([5]; BX30, fasting): -0.37 mmol/L
adjusted mean HDL cholesterol change from baseline to Month 6 ([5]; BX30, non-fasting): 0.08 mmol/L
adjusted mean triglycerides change from baseline to Month 6 ([5]; BX30, non-fasting): -0.03 mmol/L
PANSS general psychopathology subscale scores versus PBO, per-visit LOCF analysis ([6]; BX20 and BX30): statistically significantly superior to PBO from Week 9 onwards
PANSS general psychopathology, Adjusted Mean Change from Baseline (LS mean) ([6]; Month 6, listed as BX20): 0.4
PANSS general psychopathology, Adjusted Mean Change from Baseline (LS mean) ([6]; Month 6, listed as BX30): 0.8
PANSS general psychopathology, Adjusted Mean Change from Baseline (LS mean) ([6]; Week 6, listed as BX20): −1.2
PANSS general psychopathology, Adjusted Mean Change from Baseline (LS mean) ([6]; Week 6, listed as BX30): −0.4
bound to serum proteins (serum proteins): approximately 99%
incidence of N to H shifts in tri-iodine thyronine ([7]; Bifeprunox 30 mg): 6%
incidence of N to L shifts in TSH ([7]; Bifeprunox 30 mg): 4%
incidence of N to H shifts in tri-iodine thyronine ([7]; Bifeprunox 40 mg): 5%
incidence of N to L shifts in TSH ([7]; Bifeprunox 40 mg): 5%
shifts in lipids compared with the placebo and risperidone groups ([7]; bifeprunox 30, 40 mg, 6 weeks): lower incidence of N to H shifts in triglycerides, VLDL, and LDL
